Patent US6583132B1, “Oxidant scavengers” (Duke University, priority 1993, dated 2003)

Tests used:
[1] = SOD activity (McCord and Fridovich); type: biochemical; conditions: In vitro Biochemistry
Method: SOD activity can be monitored in the presence and absence of EDTA using the method of McCord and Fridovich (J. Biol. Chem. 244:6049 (1969)). The efficacy of a mimetic can be determined by measuring the effect of the mimetic on the growth of a SOD null E. coli strain versus a wild type strain. Specifically, wild type E. coli (AB1157) and SOD null E. coli. (JI132) can be grown in M9 medium containing 0.2% casamino acids and 0.2% glucose at pH 7.0 and 37° C.; growth can be monitored in terms of turbidity followed at 700 nm spectrophotometrically. Active mimetics can be tested for toxicity in mammalian cell culture by measuring lactate dehydrogenase (LDH) release. Specifically, rat L2 cells (a lung Type II like cell; (Kaighn and Douglas, J. Cell Biol. 59:106a (1973)) can be grown in Ham's F-12 medium with 10% fetal calf serum supplement at pH 7.4 and 37° C.; cells can be seeded at equal densities in 24 well culture dishes and grown to approximately 90% confluence; SOD mimetics can be added to the cells at log doses (eg micromolar doses in minimal essential medium (MEM)) and incubated for 24 hours. Toxicity can be assessed by morphology and by measuring the release of the cytosolic injury marker, LDH (eg on a thermokinetic plate reader), as described by Vassault (In: Methods of Enzymatic Analysis, Bergmeyer (ed) pp. 118-26 (1983); oxidation of NADH is measured at 340 nm). Efficacy of active mimetics can be assessed by determining their ability to protect mammalian cells against methylviologen (paraquat)-induced toxicity. Specifically, rat L2 cells grown as described above and seeded into 24 well dishes can be pre-incubated with various concentrations of the SOD mimetic and then incubated with a concentration of methylviologen previously shown to produce an LC75 in control L2 cells. Efficacy of the mimetic can be correlated with a decrease in the methylviologen-induced LDH release (St. Clair et al, FEBS Lett. 293:199 (1991)). The efficacy of SOD mimetics can be tested in vivo with mouse and/or rat models using both aerosol administration and parenteral injection. For example, male Balb/c mice can be randomized into 4 groups of 8 mice each to form a standard 2×2 contingency statistical model. Animals can be treated with either paraquat (40 mg/kg, ip) or saline and treated with SOD mimetic or vehicle control. Lung injury can be assessed 48 hours after paraquat treatment by analysis of bronchoalveolar lavage fluid (BALF) damage parameters (LDH, protein and % PMN) as previously described (Hampson et al, Tox. Appl. Pharm. 98:206 (1989); Day et al, J. Pharm. Methods 24:1 (1990)). […]
^2SOD activity determined as described by McCord and Fridovich, J. Biol. Chem. […] (1969).

[2] = Catalase activity, Clark oxygen electrode; type: biochemical; conditions: 1 mM hydrogen peroxide; oxygen formation over 2 minutes
Description: Catalase activity can be monitored by measuring absorbance at 240 nm in the presence of hydrogen peroxide (see Beers and Sizer, J. Biol. Chem. 195:133 (1952)) or by measuring oxygen evolution with a Clark oxygen electrode (Del Rio et al, Anal. Biochem. 80:409 (1977)). Peroxidase activity can be measured spectrophotometrically as previously described by Putter and Becker: Peroxidases. In: Methods of Enzymatic Analysis, H. U. Bergmeyer (ed.), Verlag Chemie, Weinheim, pp. 286-292 (1983. Aconitase activity can be measured as described in Example XI below.
Catalase activity was measured by means of a Clark oxygen electrode using a modified assay previously described by Del Rio et al, Anal. Biochem. 80:409 (1977). Briefly, reactions were performed in a nitrogen degassed phosphate buffer (50 mM, pH 7.8) containing 0.1 mM EDTA at 25° C. Three concentrations of hydrogen peroxide (1-4 mM) and four metalloporphyrin concentrations (0.5-50 μM) were used to determine second order rate constants. The rate of oxygen evolution was followed for 2 minutes.
^3Catalase activity determined as described by Del Rio et al, Anal. Biochem. 80:409 )1977). Metalloporphyrins were assayed at various concentrations in the presence of 1 mM hydrogen peroxide for catalase-like activity. A Clark electrode was used to measure the formation of oxygen from the breakdown of hydrogen peroxide over a period of 2 minutes.

[3] = test system: aconitase; experiment: Aconitase activity in cortical cell lysates; type: cell-based, rat; conditions: 1 mM NOS inhibitor
Method: (§1) Tissue culture: Mixed neuronal and glial cultures were prepared from embryonic day-18 rat cerebral cortices (Sprague-Dawley, Zivic Miller). Briefly, the cerebral cortices were dissected and enzymatically dissociated by incubation in Ca^++-, Mg^++-free Hank's balanced salt solution (HBSS) supplemented with 10 mM HEPES and 0.25% trypsin for 20 min. at 37° C. The tissue was rinsed and dispersed into single cell suspension by gentle passage through a fire polished Pasteur pipette. The cell suspension was centrifuged and resuspended in Minimum Essential Media (MEM), containing Earle's salts supplemented with 3 g/L glucose, 5% horse serum and 5% fetal bovine serum (growth media). The cells were plated in poly-D-lysine-coated multi-well plates: 12-well plates for aconitase measurement, and 24 well plates for toxicity experiments. Cells were maintained at 37° C. in a humidified incubator with 5% CO2/95% air in growth media. Media was not replaced so as to reduce glial overgrowth and neuronal loss. Mature cells (14-17 days in vitro) were used for all experiments.
(§2) Cell treatment: The growth media was replaced with MEM supplemented with 25 mM glucose (MEM-g). For both neurotoxicity studies and aconitase measurement, cells were incubated in the designated treatment for the indicated length of time at 37° C. Unless otherwise specified, antagonists or SOD-mimetics were added 15 min. prior to agonists. For measurement of neurotoxicity, cells were incubated with treatments for 18 hr at 37° C. in MEM-g. To access the ability of antagonists to inhibit acute NMDA toxicity or rescue cells from an ongoing NMDA insult, an alternate paradigm of NMDA treatment was used in addition to the one describe above. In this paradigm, growth media was replaced with HBSS^+ (Ca^++-, Mg^++-free Hank's Balanced Salt Solution supplemented with 2 mM CaCl2, 1 mM NaHCO3, 10 mM HEPES and 5 μM glycine), cells were treated with vehicle or 100 μM NMDA for 15 min. after which HBSS^+ was replaced with MEM-g and cells were returned to the incubator for 18 additional hrs. Antagonsists or SOD-mimetics were added to the cells 15 min. before NMDA exposure or 15, 30 or 60 min. following final media replacement. For determination of Ca^++-dependence, cells were incubated in HBSS^+ with no added Ca^++. When kainate (KA) was used as an agonist, 100 μM D-APV was routinely included to block secondary NMDA receptor activation. Catalase (100 U/ml) was always included when xanthine plus xanthine oxidase (X+XO) was used as a treatment to rule out the contribution of hydrogen peroxide.
Aconitase measurement: For the measurement of aconitase, following treatment with agents, media was removed and cells lysed in ice-cold 50 mM, Tris/HCl, pH 7.4 containing 0.6 mM MnCl2, 1 mM L-cysteine, 1 mM citrate and 0.5% Triton-X 100. The aconitase activity of cell lysates was measured spectrophotometrically by monitoring the formation of cis-aconitate from isocitrate at 240 nm in 50 mM Tris/HCl, pH 7.4, containing 0.6 mM MnCl2 and 20 mM isocitrate at 25° C. (Kreb and Holzach, Biochem. J. 52:527 (1952); Gardner and Fridovich, J. Biol. Chem. 267:8757 (1992)). […] Aconitase activity in cortical cell lysates was inhibited by 0.1 mM potassium ferricyanide or by boiling of sample.

[4] = test system: J774 macrophages; experiment: Mitochondrial respiration (MTT) in J774 macrophages; type: cell-based; conditions: LPS-treated and LPS and IFN-treated cells, 24 h
Method: (§3) Cell culture: J774 macrophages were cultured in DMEM medium, supplemented with L-glutamine (3.5 mmol/L) and 10% fetal calf serum. Cells were cultured in 96-well plates (200 μl medium/well) until confluence. To induce the inducible isoform of nitric oxide synthase (iNOS), fresh culture medium containing E. coli LPS (011:B4, 10 μg/ml) alone or in combination with murine γ-interferon (γ-IFN, 10 U/ml) was added in the presence or absence of the NOS inhibitor, the SOD mimetic of the combination of the two compounds for 24 h. Moreover, cells were exposed to the NO donor compounds S-nitroso-N-acetyl-DL-penicillamine (SNAP) (3 mM) and diethylamine:NO NONOate (DNO) (3 mM) for 24 h or to authentic peroxynitrite (1 mM) for 1 h). Nitride/nitrate concentration in the medium and mitochondrial respiration were then measured as described below.
Measurement of mitochondrial respiration: Cell respiration was assessed by the mitochondrial-dependent reduction of 3-(4,5-dimethylthiazol-2-yl)-2,5-diphenyltetrazolium bromide (MTT) to formazan. Cells in 96-well plates were incubated at 37° C. with MTT (0.2 mg/ml) for 1 hour. Culture medium was removed by aspiration and the cells were solubilized in DMSO (100 μl). The extent of reduction of MTT to formazan within cells was quantitated by the measurement of OD550. All measurements were corrected for the interference of MnTBAP at this wavelength.

[5] = test system: J774 macrophages; experiment: Nitrite/nitrate production in J774 macrophages; type: cell-based
Method: as §3
Measurement of nitrite/nitrate production: Nitride/nitrate production, an indicator of NO synthesis, was measured in the supernatant. First, nitrate in the culture medium was reduced to nitrite by incubation with nitrate reductase (670 mU/ml) and NADPH (160 μM) at room temperature for 2 h. After 2 h, nitrite concentration in the samples were measured by the Griess reaction, by adding 100 μl of Griess reagent (1% sulfanilamide and 0.1% naphthylethylenediamide in 5% phosphoric acid) to 100 μl samples of conditioned medium. The optical density at 550 nm (OD550) was measured using a Spectramax 250 microplate reader (Molecular Devices, Sunnyvale, Calif.) Nitrate concentrations were calculated by comparison with OD550 of standard solutions of sodium nitrate prepared in culture medium. All measurements were corrected for the interference of MnTBAP at this wavelength.

[6] = test system: rat cortical cells; experiment: Neurotoxicity (LDH release) in cortical cell culture; type: cell-based
Method: as §1, §2
Neurotoxicity studies: Neurotoxicity was determined by the measurement of LDH released in the supernatant media as previously described (Patel et al, Toxicol. Appl. Pharmacol. 115:124 (1991) and Neurotoxicology 14:35 (1992)). LDH was measured by the method of Vassault, Lactate dehydrogenase. In: Methods of Enzymatic Analysis, Bergmeyer HU (ed), Verlag Chemie, Weinheim, pp. 118-126 (1983). Additionally, cell death was confirmed with ethidium-1 homodimer (EthD-1). Briefly, the cells were washed with HBSS, loaded with 20 μM EthD-1 for 30 min,. rinsed and viewed through fluorescence optics. The number of dead cells labeled with EthD-1 were counted in 4-6 randomly selected fields, the numbers averaged to give an estimate of cell death and the experiment was repeated 3 times.

[7] = test system: Rat pulmonary epithelial cell cultures (L2); experiment: Paraquat-induced injury of L2 cells, LDH release; type: cell-based; conditions: 100 μM; Paraquat 2.5 mM, 48 hours
[8] = test system: Calf pulmonary endothelial cell (CPA-47) line; experiment: Glucose oxidase hydrogen peroxide injury of CPA-47, Cr^51 release; type: cell-based; conditions: glucose oxidase 100 Mu/ml, 4 hours; 1 hour pretreatment
Method: (§4) Calf pulmonary endothelial cell (CPA-47) line was grown to near confluence in 12-well plates with F-12K medium containing 10% fetal calf serum. CPA-47 cells were loaded with Cr^51 as previously described by Simon et al J. Clin. Invest. 78:1375 (1986) in high glucose minimum essential medium (DMEM). Cells were pretreated with MnTBAP (100 μM) for 1 hour and then exposed to various concentrations of hydrogen peroxide generator, glucose oxidase, for 4 hours. Cell injury was then quantitated as the specific Cr^51 release from CPA-47 cells which has been adjusted for spontaneous Cr51 release.
as §4, with “(J.” for “J.”, “(1986))” for “(1986)”, “various concentrations of either: (A) MnTBAP; (B) MnTMPyP; (C) ZnTBAP; or (D) CuZnSOD” for “MnTBAP (100 μM)”, “the” for “various concentrations of”, “oxidase (100 Mu/ml),” for “oxidase,”, “Cr^51” for “Cr51”

In the case of “3,3′3″,3′″-Tetramethoxy-4,4′,4″,4′″-(porphine-5,10,15,20-tetrayl)tetrakis (benzoic acid) [Compound 10305]”, the SOD [1] is reported as “inactive” and the Catalase [2] is reported as 2.2 min⁻¹.

With `CNC(=N)NCCC[C@H](N)C(=O)O` [L-NMA, N^G-methyl-L-arginine, reference compound] the NMDA-induced aconitase inactivation [3] was “unchanged”, the “immunostimulation-induced suppression of mitochondrial respiration” value [4] was “restoration of the respiration to an extent comparable with that of 300 μM MnTBAP” and the “change of inhibition of nitrite/nitrate accumulation when applied 6 h after LPS” value ([5]; LPS-stimulated macrophages) was “similar”. The “inhibition of the production of NO” value ([5]; cells stimulated with LPS or LPS and IFN) was “near-complete inhibition” and the “NMDA-induced LDH release” value ([6]; 1 mM NOS inhibitor) was “unchanged”.

In the case of `C[n+]1ccc(-c2c3nc(c(-c4cc[n+](C)cc4)c4ccc([n-]4)c(-c4cc[n+](C)cc4)c4nc(c(-c5cc[n+](C)cc5)c5ccc2[n-]5)C=C4)C=C3)cc1.[Mn+3]` [MnTMPyP, Mn(III) tetrakis (1-methy-4-pyridyl)porphyrin], the “paraquat-induced LDH release” value [7] is reported as “decrease paraquat-induced LDH release” and the “hydrogen peroxide-induced endothelial cell injury” value [8] is reported as “reduction”.

Compound “Tetra (N,N-dimethyl) 4,4′,4″,4′″-(porphine-5,10,15,20-tetrayl)-tetrakis(benzamide) manganese (III) chloride [Compound 10109]” has an SOD [1] of 470 μg/USOD and a Catalase [2] of 0.59 min⁻¹.

For “Trimethyl 2,2′,2″, 2′″-tetrahydroxy-4-benzoic acid-4″, 4″, 4′″ (porphine -5,10,15,20-tetrayl)tribenzoate manganese (III) chloride [Compound 10303]”, the SOD [1] was 78 μg/USOD, the Catalase [2] was 1.4 min⁻¹ and the “protection against NMDA-induced excitotoxicity” value ([6]; NMDA 50 μM, 25 μM compound) was 100%. The “protection against kainate-induced excitotoxicity” value ([6]; kainate 300 μM, 100 μM compound) was 100%.
